In the NIST ThermoML archive (doi:10.1016/j.jct.2012.02.007):
Numbers after ± are expanded uncertainties.

Details: 101.33 kPa, Liquid; for speed of sound: Sing-around technique in a fixed-path interferometer; for mass density: Vibrating tube method

Compound | speed of sound (293.15 K) | mass density (293.15 K) | speed of sound (308.15 K) | mass density (308.15 K) | speed of sound (323.15 K) | mass density (323.15 K)
CCCCn1cc[n+](C)c1.N#CN=C=[N-] [1-butyl-3-methylimidazolium dicyanamide] | 1750.2 ± 2.2 m/s | 1063.32 ± 0.97 kg/m3 | 1712.6 ± 2.2 m/s | 1053.81 ± 0.95 kg/m3 | 1667.3 ± 2.2 m/s | 1044.42 ± 0.93 kg/m3
CCCCO [butan-1-ol] | 1256.7 ± 0.8 m/s | 809.53 ± 0.12 kg/m3 | 1206.5 ± 0.8 m/s | 798.06 ± 0.12 kg/m3 | 1156.9 ± 0.8 m/s | 786.21 ± 0.12 kg/m3
CCC(C)O (stereo unspecified) [butan-2-ol] | 1229.5 ± 0.9 m/s | 806.47 ± 0.12 kg/m3 | 1175.5 ± 0.8 m/s | 793.92 ± 0.12 kg/m3 | 1120.3 ± 0.8 m/s | 780.44 ± 0.13 kg/m3
CCCCCO [pentan-1-ol] | 1292.5 ± 1.3 m/s | 814.54 ± 0.24 kg/m3 | 1242.4 ± 1.3 m/s | 803.53 ± 0.24 kg/m3 | 1192.8 ± 1.3 m/s | 792.17 ± 0.24 kg/m3
CCCO [propan-1-ol] | 1223.4 ± 0.8 m/s | 803.87 ± 0.12 kg/m3 | 1172.3 ± 0.8 m/s | 791.79 ± 0.12 kg/m3 | 1121.8 ± 0.8 m/s | 779.3 ± 0.13 kg/m3
CC(C)O [propan-2-ol] | 1157.3 ± 0.8 m/s | 785.4 ± 0.13 kg/m3 | 1104.8 ± 0.8 m/s | 772.6 ± 0.13 kg/m3 | 1051.6 ± 0.8 m/s | 759 ± 0.14 kg/m3
